Bounds are passed on as bounds.

Here are results for two compounds from ChEMBL document CHEMBL4321836, “Discovery of BAY-298 and BAY-899: Tetrahydro-1,6-naphthyridine-Based, Potent, and Selective Antagonists of the Luteinizing Hormone Receptor Which Reduce Sex Hormone Levels in Vivo” (J Med Chem, 2019).

Series [1] has as its target T1, Follicle-stimulating hormone receptor (Homo sapiens, UniProt P23945).
T1 sequence (P23945 whole entry): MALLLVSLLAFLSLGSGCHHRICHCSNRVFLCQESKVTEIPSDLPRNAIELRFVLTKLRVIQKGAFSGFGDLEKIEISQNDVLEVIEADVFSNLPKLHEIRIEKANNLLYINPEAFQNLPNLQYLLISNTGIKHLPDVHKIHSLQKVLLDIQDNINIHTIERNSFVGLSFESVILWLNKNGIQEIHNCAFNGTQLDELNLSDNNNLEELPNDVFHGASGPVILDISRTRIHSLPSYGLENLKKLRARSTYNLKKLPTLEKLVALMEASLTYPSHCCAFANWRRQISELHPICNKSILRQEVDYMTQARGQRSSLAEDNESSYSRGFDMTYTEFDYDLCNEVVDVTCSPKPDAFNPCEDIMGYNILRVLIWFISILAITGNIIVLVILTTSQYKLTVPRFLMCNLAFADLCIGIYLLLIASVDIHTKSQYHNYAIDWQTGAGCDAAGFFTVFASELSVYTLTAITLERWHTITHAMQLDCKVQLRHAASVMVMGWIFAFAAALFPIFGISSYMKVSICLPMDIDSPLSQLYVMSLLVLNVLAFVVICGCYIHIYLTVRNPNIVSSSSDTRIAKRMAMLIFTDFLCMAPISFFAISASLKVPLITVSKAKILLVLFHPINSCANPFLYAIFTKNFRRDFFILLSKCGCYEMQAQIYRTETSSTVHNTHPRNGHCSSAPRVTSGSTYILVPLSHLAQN
As to the kind of experiment: Antagonist activity at human follicle stimulating hormone receptor assessed as reduction in agonist-induced cAMP production preincubated for 20 mins followed by agonist solution addition and measured after 120 mins by cell based TR-FRET assay. It counts as functional.

Series [2] in a line: Clearance in human liver microsomes at 1 uM measured after 2 to 60 mins in presence of glucose-6-phosphate by LC-MS/MS analysis. It counts as ADME, Microsome. In general terms: Liver microsomes are a subcellular fraction often used to study metabolism.
A short description of series [3]: Maximum oral bioavailability in human liver microsomes based well stirred liver model at 1 uM measured after 2 to 60 mins in presence of glucose-6-phosphate by LC-MS/MS analysis. It counts as ADME, Microsome. To be noted: read-out: Fmax.
For series [4], the target named is Voltage-gated inwardly rectifying potassium channel KCNH2 (Homo sapiens, UniProt Q12809). As to the kind of experiment: Inhibition of human ERG expressed in HEK293 cells at holding potential -80 mV by whole-cell voltage-clamp method. The class given is cell-based.
Chain of Voltage-gated inwardly rectifying potassium channel KCNH2 (Q12809 whole entry): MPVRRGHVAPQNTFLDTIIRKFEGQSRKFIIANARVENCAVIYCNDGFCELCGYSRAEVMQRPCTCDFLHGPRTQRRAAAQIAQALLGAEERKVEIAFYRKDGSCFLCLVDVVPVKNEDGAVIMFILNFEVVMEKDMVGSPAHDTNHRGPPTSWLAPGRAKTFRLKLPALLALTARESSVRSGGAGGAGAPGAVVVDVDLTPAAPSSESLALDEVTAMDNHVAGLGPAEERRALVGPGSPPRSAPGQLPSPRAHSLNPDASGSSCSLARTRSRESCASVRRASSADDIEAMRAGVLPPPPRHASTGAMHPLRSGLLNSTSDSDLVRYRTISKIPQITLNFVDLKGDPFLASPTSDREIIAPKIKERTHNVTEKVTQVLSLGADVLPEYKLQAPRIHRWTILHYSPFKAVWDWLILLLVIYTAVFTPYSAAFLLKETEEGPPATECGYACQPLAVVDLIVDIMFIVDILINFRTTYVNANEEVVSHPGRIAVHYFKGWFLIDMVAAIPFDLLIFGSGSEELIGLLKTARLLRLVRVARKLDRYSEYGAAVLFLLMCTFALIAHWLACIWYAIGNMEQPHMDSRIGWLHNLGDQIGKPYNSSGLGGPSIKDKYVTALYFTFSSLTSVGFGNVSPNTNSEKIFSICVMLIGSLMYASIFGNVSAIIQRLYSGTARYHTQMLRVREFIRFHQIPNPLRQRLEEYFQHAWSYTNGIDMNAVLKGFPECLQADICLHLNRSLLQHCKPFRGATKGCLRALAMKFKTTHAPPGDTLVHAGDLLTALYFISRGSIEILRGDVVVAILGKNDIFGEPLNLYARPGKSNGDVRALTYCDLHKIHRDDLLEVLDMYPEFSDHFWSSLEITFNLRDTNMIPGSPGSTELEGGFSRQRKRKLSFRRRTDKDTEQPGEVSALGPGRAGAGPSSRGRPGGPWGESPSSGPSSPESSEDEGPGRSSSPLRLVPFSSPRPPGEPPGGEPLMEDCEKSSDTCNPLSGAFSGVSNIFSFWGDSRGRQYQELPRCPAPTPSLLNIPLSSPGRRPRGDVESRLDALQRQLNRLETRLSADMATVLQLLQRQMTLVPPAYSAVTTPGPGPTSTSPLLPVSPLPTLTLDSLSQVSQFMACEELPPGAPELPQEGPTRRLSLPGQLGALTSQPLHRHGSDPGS
The nature of series [5]: Clearance in rat liver microsomes at 1 uM measured after 2 to 60 mins in presence of glucose-6-phosphate by LC-MS/MS analysis. It counts as ADME, Microsome.
Another series is filed under the species Homo sapiens. As to the kind of experiment: Selectivity ratio of IC50 for human thyroid stimulating hormone receptor expressed in rat HTC133 cells to human luteinizing hormone receptor. It counts as cell-based.
A short description of series [6]: Clearance in Wistar rat at 0.5 mg/kg, iv after 2 to 72 hrs by LC-MS/MS analysis. It counts as ADME, organism-based. To be noted: in vivo.
A short description of series [7]: Dose normalized Cmax in Wistar rat at 2 mg/kg, po after 8 to 72 hrs by LC-MS/MS analysis. The class given is ADME, organism-based. As to conditions: in vivo.
The target of series [8] is T2, Alpha-2A adrenergic receptor (Homo sapiens) (UniProt P08913).
T2 sequence (whole entry): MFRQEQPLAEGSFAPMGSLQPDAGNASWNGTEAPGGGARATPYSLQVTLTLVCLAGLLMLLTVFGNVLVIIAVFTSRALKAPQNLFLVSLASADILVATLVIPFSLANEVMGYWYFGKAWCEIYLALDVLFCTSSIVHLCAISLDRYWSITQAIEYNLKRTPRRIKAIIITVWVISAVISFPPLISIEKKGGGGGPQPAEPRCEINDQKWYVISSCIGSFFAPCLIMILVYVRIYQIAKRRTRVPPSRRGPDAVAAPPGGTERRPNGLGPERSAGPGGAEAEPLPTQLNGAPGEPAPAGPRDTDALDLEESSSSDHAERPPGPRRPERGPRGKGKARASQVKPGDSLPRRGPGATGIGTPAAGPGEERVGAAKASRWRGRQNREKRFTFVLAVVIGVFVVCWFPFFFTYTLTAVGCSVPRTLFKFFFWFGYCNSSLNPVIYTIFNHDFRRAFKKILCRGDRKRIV
Kind of series: Agonist activity at human alpha2A adrenergic receptor expressed in Chem-1 cells at 10 uM by fluorimetric method relative to control. It counts as cell-based.

The target of series [9] is Beta-1 adrenergic receptor (Homo sapiens) (UniProt P08588). As to the kind of experiment: Antagonist activity at human beta1 adrenergic receptor expressed in HEK293 cells at 10 uM after 30 mins HTRF assay relative to control. Also on record: scale not given: the % may be the effect or the level left. It counts as cell-based.
Chain of Beta-1 adrenergic receptor (Homo sapiens) (P08588 whole entry, looked up): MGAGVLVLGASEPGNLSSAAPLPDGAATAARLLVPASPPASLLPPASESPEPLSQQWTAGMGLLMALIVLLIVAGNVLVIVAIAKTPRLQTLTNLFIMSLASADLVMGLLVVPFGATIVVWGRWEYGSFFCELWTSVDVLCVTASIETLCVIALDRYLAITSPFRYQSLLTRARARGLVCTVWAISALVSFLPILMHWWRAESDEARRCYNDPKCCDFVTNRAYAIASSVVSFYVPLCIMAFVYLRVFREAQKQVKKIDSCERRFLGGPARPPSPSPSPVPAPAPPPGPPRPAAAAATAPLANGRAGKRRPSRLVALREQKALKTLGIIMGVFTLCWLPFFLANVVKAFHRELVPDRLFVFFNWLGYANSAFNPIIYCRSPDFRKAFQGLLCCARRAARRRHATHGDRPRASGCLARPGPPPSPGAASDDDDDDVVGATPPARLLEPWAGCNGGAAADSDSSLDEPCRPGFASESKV
Series [10] concerns the target Histamine H1 receptor (Homo sapiens) (UniProt P35367). As to the kind of experiment: Antagonist activity at human histamine H1 receptor expressed in HEK293 cells at 10 uM by Fluorimetric method relative to control. The class given is cell-based. Also on record: scale not given: the % may be the effect or the level left.
The target in series [11] is Melanocortin receptor 4 (Homo sapiens) (UniProt P32245). As to the kind of experiment: Antagonist activity at human MC4 receptor expressed in CHO-K1 cells at 10 uM after 30 mins by HTRF assay relative to control. It counts as cell-based. Also on record: scale not given: the % may be the effect or the level left. On the technique in general: Time-resolved FRET reads energy transfer from a long-lived donor to a nearby acceptor.
Chain of Melanocortin receptor 4 (Homo sapiens) (P32245 whole entry): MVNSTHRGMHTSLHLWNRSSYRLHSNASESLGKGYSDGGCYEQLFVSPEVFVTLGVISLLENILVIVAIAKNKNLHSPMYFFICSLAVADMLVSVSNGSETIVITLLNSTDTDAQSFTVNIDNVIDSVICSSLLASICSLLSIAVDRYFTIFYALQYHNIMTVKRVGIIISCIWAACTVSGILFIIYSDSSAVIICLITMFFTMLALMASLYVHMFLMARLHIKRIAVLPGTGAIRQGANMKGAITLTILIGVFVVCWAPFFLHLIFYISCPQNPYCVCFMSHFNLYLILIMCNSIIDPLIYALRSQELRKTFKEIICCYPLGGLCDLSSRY

Series [12] addresses Muscarinic acetylcholine receptor M4 (Homo sapiens) (UniProt P08173). As to the kind of experiment: Agonist activity at human muscarinic M4 receptor expressed in CHO-K1 cells at 10 uM after 10 mins by HTRF method relative to control. It counts as cell-based.
Series [13] has as its target Mu-type opioid receptor (Homo sapiens) (UniProt P35372). Kind of series: Agonist activity at human mu opioid receptor expressed in CHO-K1 cells at 10 uM after 10 mins by HTRF assay relative to control. The class given is cell-based.
Series [14] shares this target. As to the kind of experiment: Antagonist activity at human mu opioid receptor expressed in CHO-K1 cells at 10 uM after 10 mins by HTRF assay relative to control. It counts as cell-based. Also on record: scale not given: the % may be the effect or the level left.
Series [15] has as its target T3, Prostaglandin E2 receptor EP3 subtype (Homo sapiens) (UniProt P43115).
T3 sequence (whole entry): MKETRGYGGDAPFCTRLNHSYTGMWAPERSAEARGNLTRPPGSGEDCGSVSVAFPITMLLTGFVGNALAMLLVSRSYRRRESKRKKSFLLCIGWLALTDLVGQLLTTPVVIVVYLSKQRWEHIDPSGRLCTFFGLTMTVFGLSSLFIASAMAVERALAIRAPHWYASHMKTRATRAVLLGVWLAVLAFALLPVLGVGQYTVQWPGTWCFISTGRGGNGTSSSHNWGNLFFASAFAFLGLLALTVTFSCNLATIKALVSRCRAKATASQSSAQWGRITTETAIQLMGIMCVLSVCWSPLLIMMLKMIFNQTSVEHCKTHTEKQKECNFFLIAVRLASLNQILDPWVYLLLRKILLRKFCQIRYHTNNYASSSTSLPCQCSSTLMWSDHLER
As to the kind of experiment: Agonist activity at human EP3 receptor expressed in […] cells at 10 uM by spectrophotometric method relative to control. The class given is cell-based.

Series [16] has as its target T3, Prostaglandin E2 receptor EP3 subtype (Homo sapiens). Kind of series: Antagonist activity at human EP3 receptor expressed in […] cells at 10 uM by spectrophotometric method relative to control. Also on record: scale not given: the % may be the effect or the level left. The class given is cell-based.
Series [17] is described as follows: Toxicity in female rat assessed as reduction in body weight. As to conditions: in vivo.

Chain of Mu-type opioid receptor (Homo sapiens) (P35372 whole entry): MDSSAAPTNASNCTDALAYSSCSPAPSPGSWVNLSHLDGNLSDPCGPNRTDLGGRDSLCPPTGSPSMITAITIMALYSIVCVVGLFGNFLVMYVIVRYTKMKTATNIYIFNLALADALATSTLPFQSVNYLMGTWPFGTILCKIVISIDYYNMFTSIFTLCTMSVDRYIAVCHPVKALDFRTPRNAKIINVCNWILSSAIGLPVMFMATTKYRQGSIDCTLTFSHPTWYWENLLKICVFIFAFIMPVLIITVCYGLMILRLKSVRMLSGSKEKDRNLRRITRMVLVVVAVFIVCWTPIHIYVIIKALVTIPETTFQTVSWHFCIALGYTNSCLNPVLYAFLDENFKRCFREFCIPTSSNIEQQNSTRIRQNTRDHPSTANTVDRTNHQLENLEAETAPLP
Chain of Muscarinic acetylcholine receptor M4 (Homo sapiens) (P08173 whole entry): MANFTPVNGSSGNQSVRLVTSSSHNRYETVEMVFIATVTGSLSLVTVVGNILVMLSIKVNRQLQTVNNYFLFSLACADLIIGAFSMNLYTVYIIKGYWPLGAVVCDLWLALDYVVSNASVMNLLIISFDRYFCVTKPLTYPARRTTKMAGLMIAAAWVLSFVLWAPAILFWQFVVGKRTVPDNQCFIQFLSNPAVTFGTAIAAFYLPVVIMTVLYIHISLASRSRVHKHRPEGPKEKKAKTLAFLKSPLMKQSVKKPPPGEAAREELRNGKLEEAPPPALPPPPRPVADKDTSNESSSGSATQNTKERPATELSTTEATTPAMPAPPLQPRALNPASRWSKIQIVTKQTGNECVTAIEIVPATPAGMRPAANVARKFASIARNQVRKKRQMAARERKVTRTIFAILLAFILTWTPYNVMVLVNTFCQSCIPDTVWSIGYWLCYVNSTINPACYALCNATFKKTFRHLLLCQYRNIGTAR
Chain of Histamine H1 receptor (Homo sapiens) (P35367 whole entry): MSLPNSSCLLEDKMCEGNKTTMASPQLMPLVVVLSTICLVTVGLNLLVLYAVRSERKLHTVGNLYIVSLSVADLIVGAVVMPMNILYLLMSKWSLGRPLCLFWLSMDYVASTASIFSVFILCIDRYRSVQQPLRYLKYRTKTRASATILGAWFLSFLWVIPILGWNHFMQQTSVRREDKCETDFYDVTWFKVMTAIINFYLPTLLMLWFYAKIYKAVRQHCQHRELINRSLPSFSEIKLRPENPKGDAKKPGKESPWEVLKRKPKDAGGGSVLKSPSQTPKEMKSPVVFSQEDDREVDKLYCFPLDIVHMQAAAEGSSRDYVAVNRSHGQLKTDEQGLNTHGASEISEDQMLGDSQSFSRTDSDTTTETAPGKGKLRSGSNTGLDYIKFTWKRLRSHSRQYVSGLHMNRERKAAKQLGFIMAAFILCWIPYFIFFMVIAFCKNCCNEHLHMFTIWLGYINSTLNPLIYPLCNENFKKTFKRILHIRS

With `O=C(Nc1ccc(Oc2ccc(F)cc2)cc1)N1CCc2ncccc2[C@@H]1c1ccc(Cl)cc1`, the IC50 (commonly the concentration needed to halve the response being measured) in [1] is > 16 µM; in [4], 3 µM. The CLhep predicted at 1 µM in series [2] was 3.33 mL/min/kg. The Fh at 1 µM in series [3] turned out to be 85%. The CLH in series [5] was found to be 3.3 mL/min/kg. Besides, the Ratio IC50 in the series filed under Homo sapiens came to 24. Also, the clearance (as a rule, the volume of plasma or blood freed of the substance per unit of time) in series [6] was 1.83 mL/min/kg. Moreover, the Cmax/dose in series [7] is 0.24 kg/L. Moreover, the Activity in series [8], in series [9], in [10], in series [11], in series [12] and in series [13] was < 70% in each case. The Activity was < 70% in [14], < 70% in [15], < 70% in series [16] and “Non-Toxic” in series [17].
Consider `O=C(Nc1cnc(Oc2ccc(F)cc2)nc1)N1CCc2ncccc2[C@@H]1c1ccc(F)cc1` [BAY-899], for which the IC50 in [1] was > 16 µM; in [4], 10.6 µM. For the same compound, the CLhep predicted at 1 µM in [2] is 1.67 mL/min/kg. Moreover, in [3], the Fh at 1 µM came to 89%. Moreover, the CLH in series [5] was found to be 3.3 mL/min/kg. In addition, the Ratio IC50 in the series filed under Homo sapiens is > 100. This compound gave a clearance in series [6] of 6.83 mL/min/kg. This compound also showed a Cmax/dose in [7] of 0.066 kg/L. Further, the Activity in series [8], in series [9], in [10], in [11], in [12] and in series [13] was < 70% in each case. In addition, the Activity is < 70% in series [14], < 70% in [15], < 70% in series [16] and “Non-Toxic” in series [17].
